Patent US20260091078A1, “OLIGOPEPTIDE THAT INHIBITS ANGIOGENESIS AND VASCULAR FUNCTION” (UNIVERSIDAD NACIONAL AUTONOMA DE MEXICO, priority 2019, published 2026)

Key:
[1] = test system: human umbilical-vein endothelial cells (HUVEC); assay: Proliferation of HUVEC stimulated with VEGF and bFGF (EdU click assay); type: cell-based; conditions: HUVEC, 25 ng ml^-1 VEGF and 20 ng ml^-1 bFGF, 24 hours, 0.001 to 100 nM; read-out: effective dose (EC50) for inhibition of proliferation
Method: On a 96-well plate treated for cell culture, BUVEC E6E7 and HUVEC cells were seeded at a density of ˜14,000 and ˜11,000 cells cm^−2, respectively. BUVEC E6E7 cells were maintained in F12K culture media with 10% (v/v) fetal bovine serum (FBS) and the HUVEC in F12K media supplemented with 20% of FBS, 100 μg ml^−1 heparin and 25 μg ml^−1 of endothelial cell growth supplement (ECGS). After 24 hours, the cells were starved with FBS-reduced media (0.1% of FBS for BUVEC E6E7 and 0.5% for HUVEC) for 16 hours to synchronize cells in phase GO of the reproductive cycle. After this time, FBS and heparin were replenished only to HUVEC. The cells were then treated with vasoinhibin or the oligopeptide THGRGFI in concentrations ranging from 0.001 to 100 nM for 24 hours in the presence of 10 μM of the thymidine analog 5-Ethynyl-2′-deoxyuridine (EdU) and 50 ng ml^−1 VEGF for the BUVEC E6E7 or the combination of 25 ng ml^−1 VEGF and 20 ng ml^−1 bFGF for HUVEC. At the end of the experiment, cells were fixed with 4% paraformaldehyde, permeabilized with 0.5% Triton X-100 in TBS1x, and stained to detect the newly synthetized DNA by the incorporation of EdU using the “click” assay (which involves a copper catalyzed reaction to covalently bind fluorescent azide to the EDU incorporated to DNA). Total DNA was counterstained with Hoechst 33342 and the “click”-stained nuclei were quantified and plotted relative to the total number of Hoechst 33342-stained nuclei.
HUVEC were seeded on a 96 well plate at a density of ˜11,000 cells cm^−2 and maintained in F12K supplemented with 20% of FBS, 100 μg ml^−1 heparin and 25 μg ml^−1 endothelial cell growth supplement (ECGS). After 24 hours, the cells were synchronized in GO with starving conditions (FBS 0.5%) for 16 hours, and after that FBS and the heparin were replenished. Cells were then treated with THGRGFI, the different oligopeptides and 123 amino acids vasoinhibin, each in a concentration of 100 nM, for 24 hours in presence or absence of 10 μM of thymidine analog 5-Ethynyl-2′-deoxyuridine (EdU) and a combination of 25 ng ml^−1 VEGF and 20 ng ml^−1 bFGF. Finally, the cells were fixed with 4% paraformaldehyde, permeabilized with 0.5% of Triton X-100 in TBS1x and stained for the newly synthetized DNA with the ‘click’ method that detects the EdU incorporation. Total DNA was stained with Hoechst 33342 and the percentage of ‘click’-stained nuclei relative to total nuclei (Hoechst 33342-stained) indicated cell proliferation.
Approximately 11,000 HUVEC cells cm^−2 were seeded on a 96 well plate in F12K media with 20% FBS, 100 μg ml^−1 heparin and 25 μg ml^−1 ECGS. After 24 hours, cells were starved with 0.5% of FBS for ˜16 hours, and after that time the FBS and heparin were added again and cells treated with different doses of the alanine substituted oligopeptides for 24 hours, in the presence of EdU and a combination of 25 ng ml^−1 VEGF and 20 ng ml^−1 bFGF. Finally, the cells were fixed, permeabilized and stained to quantify the synthesis of DNA as a sign of proliferation.

[2] = test system: human endothelial cells from the umbilical-vein (HUVEC); assay: Formation of capillary structures by HUVEC on Matrigel; type: cell-based; conditions: 100 nM, 6 hours
Method: For investigating whether the oligopeptide THGRGFI shares this property, a primary culture of human endothelial cells from the umbilical-vein (HUVEC) was maintained in F12K media supplemented with 20% FBS, 100 μg ml^−1 of heparin, and 25 μg ml^−1 endothelial cell growth supplement (ECGS). Cells from passages 2 to 4 were rinsed with tempered PBS1x and were detached from the plate with 0.25% trypsin-EDTA for ˜3 minutes and centrifuged to remove trypsin. The cells were counted using an hemocytometer and seeded at a density of 29,000 cells cm^−2 in 300 μl of F12K medium supplemented with 20% FBS and with heparin on a 24-well plate, over a layer of ˜9.7 μg μl^−1 Matrigel™ which was previously polymerized for 1 hour at 37° C. Cells were then treated with 100 nM vasoinhibin or the oligopeptide THGRGFI, and after 6 hours, micrographs were obtained in an inverted microscope. The images were analyzed to quantify main joining areas per field using the software “Angiogenesis Analyzer” [Gilles Carpentier. ImageJ contribution: Angiogenesis Analyzer. ImageJ News, 5 Oct. 2012.] and the ImageJ software.

[3] = test system: BUVEC E6E7; assay: Vasopermeability in vitro: transendothelial electrical resistance (TEER); type: cell-based, bovine; conditions: BUVEC E6E7 monolayer, 100 nM, 50 ng ml^-1 VEGF, up to 120 minutes
Method: Another conventional protocol to evaluate vasopermeability is the measurement of the transendothelial electrical resistance (TEER), which uses a device that applies an electric current through electrodes at both sides of the endothelial cell monolayer. […] The effect of the oligopeptide THGRGFI on endothelial cell permeability was evaluated by measuring TEER. BUVEC E6E7 were seeded in the TEER device at a density of 10,000 cells cm^−2. After three days, the monolayers were starved in low serum media (0.1% FBS) for 48 hours and after this time, 100 nM of vasoinhibin or of the oligopeptide were added to the upper compartment (luminal surface of the monolayer) for 1 hour. At time 0, TEER was recorded and 50 ng ml^−1 of VEGF were added to the luminal side. The TEER was measured at 10, 20, 30, 60, 90 and 120 minutes. Determinations were performed with the Epithelial Volt/Ohm (TEER) EVOM2 equipment (World Precision Instruments, FL, USA) with a 4 mm ‘chopstick’ electrode. Values were normalized relative to a device with no cells and a monolayer without treatment.

[4] = test system: VEGF-induced retinal vasopermeability; assay: Vasopermeability in vivo: VEGF-induced retinal albumin extravasation (Evans blue method); conditions: Wistar rats, intravitreal, 20 μM with 300 ng VEGF, 24 hours
Method: For evaluating if the oligopeptide THGRGFI conserves the inhibitory properties of vasoinhibin on VEGF-induced vasopermeability in vivo, the effect of the intravitreal injection of VEGF alone or in combination with the oligopeptide or vasoinhibin in rats was determined.
Wistar rats were intravitreally injected with saline (control) or with 300 ng of VEGF in each case alone or in combination with 20 μM of the oligopeptide of the invention or with 20 μM of vasoinhibin. After 24 hours, the extravasation of albumin into the retina was evaluated using the Evans blue method. Briefly, 45 mg kg^−1 of total weight of the Evans blue dye was injected intravenously to anesthetized rats and was allowed to circulate for 2 hours. Then, the animals were perfused with ˜80 ml of PBS at a flow of ˜40 ml min^−1. The retinas were dissected, dried and incubated with 200 μl of formamide (Mallinckrodt Baker, Phillipsburg, NJ) at 72° C. and after 18 hours the labeled albumin was determined in the retinal extracts.

Ac-THGRGFI-NH2 [THGRGFI, Thr His Gly Arg Gly Phe Ile]
EC50 [1]: ~1 nM | effect on capillary structures (main joining areas per field) [2]: disrupted the capillary structures | effect on VEGF-induced reduction of transendothelial resistance (TEER) [3]: block the VEGF effect | inhibition of VEGF-induced retinal vasopermeability [4]: blocks the VEGF increase in retinal vasopermeability
